Source: patent publication US20220324803A1 (Teon Therapeutics, Inc., priority 2019, published 2022)

These compounds were tested against T1, human Prostanoid EP4 Receptor (EP4) (Homo sapiens, UniProt P35408) (assay: Prostanoid EP4 binding assay (3H-prostaglandin E2 displacement, cell membranes)). Conditions: HEK293 cell membranes with human EP4, 3H-prostaglandin E2, 24° C.
T1 construct: expressed in transfected cells; host or cells: HEK293 (G418 selection); membranes prepared by differential centrifugation
Protocol: HEK293 cells transfected with human Prostanoid EP4 Receptor (EP4) are maintained in DMEM supplemented with L-Glutamine, 10% FBS and 300 μg/ml G418. Cells are harvested and membranes prepared by differential centrifugation, following lysis of the cells in the presence of protease inhibitors, for use in the receptor binding assay. EP4 binding assay is performed in 50 mM HEPES pH7.4, 5 mM MgCl2, 1 mM CaCl2) and 0.2% BSA. Testing compounds are diluted with DMSO to make 8-point 4-fold serial dilution. Cell membrane homogenates are incubated at 24° C. with ^3H-prostaglandin E2 in the absence or presence of the testing compound in assay buffer. Nonspecific binding (Low control: LC) and total binding (High control: HC) are determined in the presence or absence of saturated cold ligand Prostaglandin E2 (PGE2). Specific binding is calculated by subtracting nonspecific binding from total binding. When binding assays are completed, the reaction mixture is filtered rapidly under vacuum through glass fiber filters (GF/C, Packard) presoaked with 0.5% BSA for at least 0.5 hour at room temperature and then washed for 4 times with cold wash buffer (50 mM HEPES pH7.4, 500 mM NaCl, 0.1% BSA) using a 96-sample Perkin Elmer Filtermate Harvester (Unifilter, Packard). The filters are dried for 1 hour at 50 degrees then counted for radioactivity in a scintillation counter using Perkin Elmer Microscint 20 cocktail. ^3H trapped on filter is counted using Perkin Elmer MicroBeta2 Reader. Inhibition is calculated using following equation: % Inhibition=(1−(Assay well−Average_LC)/(Average_HC−Average_LC))×100%. The results are expressed as a percent inhibition of the control radioligand specific binding. Data are analyzed and IC50 is calculated using GraphPad Prism 5 and the model “log(inhibitor) vs. response—Variable slope”. The binding affinity of the compounds is determined by using the Cheng and Prusoff equation Ki=IC50/(1+[radioligand]/Kd).

T1 sequence (P35408 whole entry): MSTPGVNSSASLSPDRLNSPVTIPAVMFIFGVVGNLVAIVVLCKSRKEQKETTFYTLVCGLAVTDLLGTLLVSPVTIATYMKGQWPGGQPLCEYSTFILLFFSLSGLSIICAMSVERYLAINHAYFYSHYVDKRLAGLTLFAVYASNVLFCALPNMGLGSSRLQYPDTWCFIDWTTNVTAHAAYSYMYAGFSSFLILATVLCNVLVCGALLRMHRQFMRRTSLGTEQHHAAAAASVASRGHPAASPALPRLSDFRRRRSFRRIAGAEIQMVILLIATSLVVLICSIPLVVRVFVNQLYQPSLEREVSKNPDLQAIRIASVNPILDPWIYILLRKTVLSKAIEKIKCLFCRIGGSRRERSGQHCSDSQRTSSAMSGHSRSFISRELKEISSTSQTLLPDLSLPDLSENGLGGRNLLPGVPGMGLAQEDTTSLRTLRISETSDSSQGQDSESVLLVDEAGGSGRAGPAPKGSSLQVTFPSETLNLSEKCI

Ki [nM]	SMILES
< 100	CCn1cc(C(=O)N[C@H]2CC3(C2)C[C@H](C(=O)O)C3)c2c(Cc3ccc(C(F)(F)F)cc3)cccc21 (stereo partly drawn) [Compound 41, trans-2-[[1-ethyl-4-[[4-(trifluoromethyl)phenyl]methyl]indole-3-carbonyl]amino]spiro[3.3]heptane-6-carboxylic acid]
< 100	O=C(N[C@H]1CC2(C1)C[C@H](C(=O)O)C2)c1cn(CCF)c2cccc(Cc3ccc(C(F)(F)F)cc3)c12 (stereo partly drawn) [Compound 44, trans-2-[[1-(2-fluoroethyl)-4-[[4-(trifluoromethyl)phenyl]methyl]-indole-3-carbonyl]amino]spiro[3.3]heptane-6-carboxylic acid]
< 100	CCn1cc(C(=O)NC2CC3(C2)CC(C(=O)O)C3)c2c(Cc3ccc(C(F)(F)F)cc3)ccnc21 (stereo not drawn) [Compound 45, trans-2-[[1-ethyl-4-[[4-(trifluoromethyl)phenyl]methyl]-pyrrolo[2,3-b]pyridine-3-carbonyl]amino]spiro[3.3]heptane-6-carboxylic acid]
< 100	CCn1cc(C(=O)N[C@@H](C)c2ccc(C(=O)O)cc2)c2c(Cc3ccc(C(F)(F)F)cc3)ccnc21 [Compound 46, 4-[(1S)-1-[[1-ethyl-4-[[4-(trifluoromethyl)phenyl]methyl]-pyrrolo[2,3-b]pyridine-3-carbonyl]amino]ethyl]benzoic acid]
< 100	O=C(NC1CC2(C1)CC(C(=O)O)C2)c1cn(CCF)c2nccc(Cc3ccc(C(F)(F)F)cc3)c12 (stereo not drawn) [Compound 48, trans-2-[[1-(2-fluoroethyl)-4-[[4-(trifluoromethyl)phenyl]methyl]-pyrrolo[2,3-b]pyridine-3-carbonyl]amino]spiro[3.3]heptane-6-carboxylic acid]
< 100	CCn1cc(C(=O)NC23CC(CC(=O)O)(C2)C3)c2c(Cc3ccc(C(F)(F)F)cc3)cccc21 [Compound 51, 2-[3-[[1-ethyl-4-[[4-(trifluoromethyl)phenyl]methyl]indole-3-carbonyl]amino]-1-bicyclo[1.1.1]pentanyl]acetic acid]
< 100	CCn1cc(C(=O)NC23CC(CC(=O)O)(C2)C3)c2c(Cc3ccc(C(F)(F)F)cc3)ccnc21 [Compound 53]
< 100	O=C(O)CC12CC(NC(=O)c3cn(CCF)c4nccc(Cc5ccc(C(F)(F)F)cc5)c34)(C1)C2 [Compound 54, 2-[3-[[1-(2-fluoroethyl)-4-[[4-(trifluoromethyl)phenyl]methyl]-pyrrolo[2,3-b]pyridine-3-carbonyl]amino]-1-bicyclo[1.1.1]pentanyl]acetic acid]
< 100	CCn1cc(C(=O)NC[C@H]2CC[C@H](C(=O)O)CC2)c2c(Cc3ccc(C(F)(F)F)cc3)cccc21 [Compound 55, (1r,4r)-4-[[[1-ethyl-4-[[4-(trifluoromethyl)phenyl]methyl]indole-3-carbonyl]amino]methyl]cyclohexanecarboxylic acid]
< 100	O=C(O)C[C@H]1CC[C@H](NC(=O)c2cn(CCF)c3nccc(Cc4ccc(C(F)(F)F)cc4)c23)CC1 [Compound 57, 2-[(1r,4r)-4-[[1-(2-fluoroethyl)-4-[[4-(trifluoromethyl)-phenyl]methyl]pyrrolo[2,3-b]pyridine-3-carbonyl]amino]cyclohexyl]acetic acid]

Continued, compound first:

SMILES	Ki [nM]
O=C(NC1CC2(C1)CC(C(=O)O)C2)c1cnn2cccc(Cc3cc4ccccc4cn3)c12 (single isomer, unassigned) [Compound 13A, cis-2-[[4-(3-isoquinolylmethyl)pyrazolo[1,5-a]pyridine-3-carbonyl]amino]spiro[3.3]heptane-6-carboxylic acid]	> 500
O=C(O)CC12CC(NC(=O)c3cnn4cccc(Cc5cccc(C(F)(F)F)c5)c34)(C1)C2 [Compound 16, 2-[3-[[4-[[3-(trifluoromethyl)phenyl]methyl]pyrazolo[1,5-a]pyridine-3-carbonyl]amino]-1-bicyclo[1.1.1]pentanyl]acetic acid]	> 500
O=C(O)CC12CC(NC(=O)c3n[nH]c4cccc(Cc5ccc(C(F)(F)F)cc5)c34)(C1)C2 [Compound 18, 2-(3-(4-(4-(trifluoromethyl)benzyl)-1H-indazole-3-carboxamido)bicyclo[1.1.1]pentan-1-yl)acetic acid]	100 to 499
O=C(N[C@H]1CC[C@@H](C(=O)O)C1)c1cnn2cccc(Cc3ccc(C(F)(F)F)cc3)c12 [Compound 39, (1R,3S)-3-[[4-[[4-(trifluoromethyl)phenyl]methyl]pyrazolo[1,5-a]pyridine-3-carbonyl]amino]cyclopentanecarboxylic acid]	< 100
O=C(NC[C@H]1CC[C@H](C(=O)O)CC1)c1cnn2cccc(Cc3ccc(C(F)(F)F)cc3)c12 [Compound 40, (1r,4r)-4-[[[4-[[4-(trifluoromethyl)phenyl]methyl]pyrazolo[1,5-a]pyridine-3-carbonyl]amino]methyl]cyclohexanecarboxylic acid]	< 100
CCn1cc(C(=O)N[C@@H](C)c2ccc(C(=O)O)cc2)c2c(Cc3ccc(C(F)(F)F)cc3)cccc21 [Compound 42, 4-[(1S)-1-[[1-ethyl-4-[[4-(trifluoromethyl)phenyl]methyl]indole-3-carbonyl]amino]ethyl]benzoic acid]	< 100
C[C@H](NC(=O)c1cn(CCF)c2cccc(Cc3ccc(C(F)(F)F)cc3)c12)c1ccc(C(=O)O)cc1 [Compound 43, 4-[(1S)-1-[[1-(2-fluoroethyl)-4-[[4-(trifluoromethyl)phenyl]methyl]indole-3-carbonyl]amino]ethyl]benzoic acid]	< 100
C[C@H](NC(=O)c1cn(CCF)c2nccc(Cc3ccc(C(F)(F)F)cc3)c12)c1ccc(C(=O)O)cc1 [Compound 47, 4-[(1S)-1-[[1-(2-fluoroethyl)-4-[[4-(trifluoromethyl)phenyl]methyl]pyrrolo[2,3-b]pyridine-3-carbonyl]amino]ethyl]benzoic acid]	< 100
CC(C(=O)O)c1ccc(NC(=O)c2cnn3cccc(Cc4ccc(C(F)(F)F)cc4)c23)cc1 (centres unmarked) [Compound 49, 2-[4-[[4-[[4-(trifluoromethyl)phenyl]methyl]pyrazolo[1,5-a]pyridine-3-carbonyl]amino]phenyl]propanoic acid]	100 to 499
O=C(NCC12CCC(C(=O)O)(CC1)C2)c1cnn2cccc(Cc3ccc(C(F)(F)F)cc3)c12 [Compound 50, 4-[[[4-[[4-(trifluoromethyl)phenyl]methyl]pyrazolo[1,5-a]pyridine-3-carbonyl]amino]methyl]norbornane-1-carboxylic acid]	> 500
O=C(O)CC12CC(NC(=O)c3cn(CCF)c4cccc(Cc5ccc(C(F)(F)F)cc5)c34)(C1)C2 [Compound 52, 2-[3-[[1-(2-fluoroethyl)-4-[[4-(trifluoromethyl)phenyl]methyl]-indole-3-carbonyl]amino]-1-bicyclo[1.1.1.1]pentanyl]acetic acid]	< 100
CCn1cc(C(=O)N[C@H]2CC[C@H](CC(=O)O)CC2)c2c(Cc3ccc(C(F)(F)F)cc3)cccc21 [Compound 56, 2-[(1r,4r)-4-[[1-ethyl-4-[[4-(trifluoromethyl)phenyl]methyl]indole-3-carbonyl]amino]cyclohexyl]acetic acid]	< 100
O=C(NC[C@H]1CC[C@H](C(=O)O)CC1)c1cn(CCF)c2nccc(Cc3ccc(C(F)(F)F)cc3)c12 [Compound 58, (1r,4r)-4-[[[1-(2-fluoroethyl)-4-[[4-(trifluoromethyl)-phenyl]methyl]-pyrrolo[2,3-b]pyridine-3-carbonyl]amino]methyl]cyclohexanecarboxylic acid]	< 100

What follows are compounds tested against T1, human Prostanoid EP4 Receptor (EP4) (assay: Prostanoid EP4 FLIPR assay (calcium flux, PGE2 addition)). Conditions: HEK293 cells transfected with human EP4, Fluo-4 calcium dye.
Format: cell-based
Protocol: HEK293 cells transfected with human Prostanoid EP4 Receptor (EP4) or CHO cells transfected with human Prostanoid EP2 Receptor (EP2) are maintained in DMEM supplemented with L-Glutamine, 10% FBS and 300 μg/ml G418. Cells are plated at 20,000 cells/well in black 384-well Poly-D-Lysine protein coating plate and incubated at 37° C., 5% CO2 for 24 h. Prior to the assay, calcium-sensitive dye Fluo-4 Direct™ (Molecular Devices) is reconstituted according to manufacturer instructions. The reconstituted dye was diluted in assay buffer (1× HBSS, 20 mM HEPES, and 2.5 mM Probenicid, pH 7.4). Growth media is removed and 20 μl of this diluted dye is added to each well at a final concentration of 2 μM. Plates are incubated for 50 min at 37° C. 5% C02 and 10 min at RT after dye addition. Testing compounds are diluted with DMSO to make 10-point 4-fold serial dilution. After the pre-treatment incubation, fluorescence intensity is measured on a FlexStation II fluorometric imaging plate reader (Molecular Devices). Relative fluorescence units (RFU) are measured before (20 readings) and after (40 readings) the PGE2 addition for a total 60 sec read time (Excitation=485 nm, Emission=525 nm). Data are analyzed and IC50 is calculated using GraphPad Prism 5 and the model “log(inhibitor) vs. response—Variable slope”.
Illustrative data for representative compounds are described in Table 2.

IC50 [nM]	SMILES
100 to 499	O=C(O)CC12CC(NC(=O)c3cnn4cccc(Cc5cccc(C(F)(F)F)c5)c34)(C1)C2 [Compound 16, 2-[3-[[4-[[3-(trifluoromethyl)phenyl]methyl]pyrazolo[1,5-a]pyridine-3-carbonyl]amino]-1-bicyclo[1.1.1]pentanyl]acetic acid]
< 100	O=C(O)CC12CC(NC(=O)c3n[nH]c4cccc(Cc5ccc(C(F)(F)F)cc5)c34)(C1)C2 [Compound 18, 2-(3-(4-(4-(trifluoromethyl)benzyl)-1H-indazole-3-carboxamido)bicyclo[1.1.1]pentan-1-yl)acetic acid]

SMILES	IC50 [nM]
O=C(NC1CC2(C1)CC(C(=O)O)C2)c1cnn2cccc(Cc3cc4ccccc4cn3)c12 (single isomer, unassigned) [Compound 13A, cis-2-[[4-(3-isoquinolylmethyl)pyrazolo[1,5-a]pyridine-3-carbonyl]amino]spiro[3.3]heptane-6-carboxylic acid]	100 to 499
